# Assay results from US20070259879A1, “Piperazine and piperidine biaryl derivatives” (priority 2006, published 2007).
# Tested on: HIV-1 pseudotyped virus
# Test: HIV-1 pseudotyped virus assay (luciferase reporter gene, single cycle of infection)
# Format: cell-based
# Conditions: Human immunodeficiency virus 1, CCR5, 72 h, read-out: Activity (antiviral activity, IC50)
# Description: In this example are illustrated experimental procedures for determining biological activity, such as antiviral activity. For determining biological activity, an HIV-1 infection assay was used to determine the antiviral potency for compounds of the present invention.
# For determining biological activity, an HIV-1 pseudotyped virus assay was used to determine the respective antiviral potencies of each compound tested in the assay for comparison. The pseudotyped assay scores for a reduction in infection as indicated by decreased signal from the reporter gene encoding a luciferase enzyme (“reporter gene”). The assay employs cell lines expressing CD4 and either of the primary chemokine receptors (CCR5 or CXCR4) that HIV uses as a co-receptor (“target cells”). Pseudotyped virus was prepared by co-transfection of 293T cells with: 1) a plasmid construct carrying the HIV-1 envelope of choice, in combination with 2) a pseudotyped virus backbone construct in which (a) envelope expression has been abrogated due to a frameshift in the envelope sequence, and (b) the reporter gene replaces nef. Expression of HIV-1 envelope on 293T packaging cells results in the production of a pseudotyped virus carrying the reporter gene that is capable of a single cycle of infection.
# The compounds of the present invention being tested for antiviral activity were serially diluted and dose responses determined in duplicate in two separate experiments. The compounds to be tested were added directly to the plated, target cells, followed by the addition of pseudotyped virus described above. The cells were cultured for three days prior harvest. Media and compound were removed, the cell monolayer was washed, lysed by detergent, and then frozen at −80 degrees C. for a minimum of 30 minutes. Following thawing and acclimation to room temperature, luciferase production was quatified by injecting 100 […]I of a substrate (of the enzyme encoded by the reporter gene) into each well followed by detecting the signal (light emitted from the interaction between the enzyme and substrate) after 5 seconds. In the pseudotyped assay, a 50% reduction in signal is significant, and provides the primary cutoff value for assessing antiviral activity (“IC50” is defined as the dilution resulting in a 50% reduction in enzymatic activity as interpolated from a titration curve). Representative compounds according to the present invention, and their antiviral activity, are illustrated in Table 3.
row,Structure (SMILES),IC50 [µM]
1,"C[C@@H]1CN(C(=O)c2ccccc2)CCN1S(=O)(=O)c1ccc(-c2csnn2)cc1 [Example 134, [(R)-3-methyl-4-(4-[1,2,3]thiadiazol-4-yl-benzenesulfonyl)-piperazin-1-yl]-phenyl-methanone]",> 5
2,"CC1CN(C(=O)c2ccccc2)CCN1S(=O)(=O)c1ccc(-c2ccc3ccccc3n2)s1 (stereo not shown) [Example 135, (3-methyl-4-(5-(quinolin-2-yl)thiophen-2-ylsulfonyl)piperazin-1-yl)(phenyl)methanone]",> 5
3,"Cc1ccc(C#N)c(-c2ccc(S(=O)(=O)N3CCN(C(=O)c4ccccc4)CC3C)s2)n1 (stereo not shown) [Example 136, 2-(5-(4-benzoyl-2-methylpiperazin-1-ylsulfonyl)thiophen-2-yl)-6-methylnicotinonitrile]",> 5
4,"Cc1cccc(-c2ccc(S(=O)(=O)N3CCN(C(=O)c4ccccc4)CC3C)s2)n1 (stereo not shown) [Example 137, (3-methyl-4-(5-(6-methylpyridin-2-yl)thiophen-2-ylsulfonyl)piperazin-1-yl)(phenyl)methanone]",> 5
5,"Cc1ccnc(-c2ccc(S(=O)(=O)N3CCN(C(=O)c4ccccc4)CC3C)s2)c1 (stereo not shown) [Example 138, (3-methyl-4-(5-(4-methylpyridin-2-yl)thiophen-2-ylsulfonyl)piperazin-1-yl)(phenyl)methanone]",> 5
6,"Cc1cccnc1-c1ccc(S(=O)(=O)N2CCN(C(=O)c3ccccc3)CC2C)s1 (stereo not shown) [Example 139, (3-methyl-4-(5-(3-methylpyridin-2-yl)thiophen-2-ylsulfonyl)piperazin-1-yl)(phenyl)methanone]",> 5
7,"CC1CN(C(=O)c2ccccc2)CCN1S(=O)(=O)c1ccc(-c2ncccn2)s1 (stereo not shown) [Example 141, (3-methyl-4-(5-(pyrimidin-2-yl)thiophen-2-ylsulfonyl)piperazin-1-yl)(phenyl)methanone]",< 5
8,"CC1CN(C(=O)c2ccccc2)CCN1S(=O)(=O)c1ccc(-c2cccs2)s1 (stereo not shown) [Example 142, (4-(2,2′-bithiophen-5-ylsulfonyl)-3-methylpiperazin-1-yl)(phenyl)methanone]",< 5
9,"CC1CN(C(=O)c2ccccc2)CCN1S(=O)(=O)c1ccc(-c2ccc(-c3ccon3)s2)s1 (stereo not shown) [Example 143, (4-(5′-(isoxazol-3-yl)-2,2′-bithiophen-5-ylsulfonyl)-3-methylpiperazin-1-yl)(phenyl)methanone]",> 5
10,"CC1CN(C(=O)c2ccccc2)CCN1S(=O)(=O)c1ccc(-c2ccc(-c3ccno3)s2)s1 (stereo not shown) [Example 144, (4-(5′-(isoxazol-5-yl)-2,2′-bithiophen-5-ylsulfonyl)-3-methylpiperazin-1-yl)(phenyl)methanone]",< 5
11,"CC1CN(C(=O)c2ccccc2)CCN1S(=O)(=O)c1ccc(-c2ccccc2)s1 (stereo not shown) [Example 145, (3-methyl-4-(5-phenylthiophen-2-ylsulfonyl)piperazin-1-yl)(phenyl)methanone]",> 5
12,"Cc1ccc(-c2ccc(S(=O)(=O)N3CCN(C(=O)c4ccccc4)CC3C)s2)nn1 (stereo not shown) [Example 146, (3-methyl-4-(5-(6-methylpyridazin-3-yl)thiophen-2-ylsulfonyl)piperazin-1-yl)(phenyl)methanone]",> 5
13,CC1CN(C(=O)c2ccccc2)CCN1S(=O)(=O)c1ccc(-c2ccc(C#N)cn2)s1 (stereo not shown) [Example 147],< 5
14,"CC1CN(C(=O)c2ccccc2)CCN1S(=O)(=O)c1ccc(-c2ccncn2)s1 (stereo not shown) [Example 148, (3-methyl-4-(5-(pyrimidin-4-yl)thiophen-2-ylsulfonyl)piperazin-1-yl)(phenyl)methanone]",> 5
15,"CC1CN(C(=O)c2ccccc2)CCN1S(=O)(=O)c1ccc(-c2cccnc2)s1 (stereo not shown) [Example 150, (3-methyl-4-(5-(pyridin-3-yl)thiophen-2-ylsulfonyl)piperazin-1-yl)(phenyl)methanone]",> 5
16,"CC1CN(C(=O)c2ccccc2)CCN1S(=O)(=O)c1ccc(-c2ncnc3ccsc23)s1 (stereo not shown) [Example 151, (3-methyl-4-(5-(thieno[3,2-d]pyrimidin-4-yl)thiophen-2-ylsulfonyl)piperazin-1-yl)(phenyl)methanone]",> 5
